Data: US20240100027A1, “INHIBITION OF PROSTAGLANDIN DEGRADING ENZYME 15-PGDH TO IMPROVE JOINT STRUCTURE AND FUNCTION” (The Board of Trustees of the Leland Stanford Junior …, priority 2020, published 2024)

Tests used:
[1] = tested on: knee joints of aged mice; assay: Systemic i.p. treatment of aged mice: knee joint Safranin O histology and OARSI scoring; assay type: in vivo, mice C57BL/6; conditions: 5 mg/kg i.p. daily for 1 month
Protocol: Mice handling. All experiments and protocols were performed in accordance with the institutional guidelines of Stanford University and Administrative Panel on Laboratory Animal Care (APLAC). Aged (24-28 mo.) mice C57BL/6 were obtained from the US National Institute on Aging (NIA) aged colony.
(§1) Histology on mouse joints and human cartilage explants. Mouse joints were fixed in 4% paraformaldehyde overnight, dehydrated in ethanol and embedded in paraffin. Sagittal Sections (5 μm) of the mouse joints were cut by the Histoserv, Inc (Germantown, MD). Cartilage histology was performed by Safranin O (Saf O) staining as previously reported (Smeriglio et al., 2020, Sci Transi. Med. 12:eaax2332). Joints were assessed through blinded grading with the OARSI scoring system. Briefly, sections of mouse joints were stained with Safranin O, and cartilage degeneration was evaluated by assigning numbers 0 to 4 for increasing depth of cartilage degeneration (OARSI scoring system). For the summit scores, five regions were summed.
SW was previously extensively characterized as a specific inhibitor of 15-PGDH in vitro (ki of 0.1 nM).

[2] = tested on: OA knee joints of adult mice; assay: Tibia loading (ACL rupture) post-traumatic OA in adult mice, intra-articular injections: Safranin O histology and OARSI scoring; assay type: in vivo, mice C57BL/6; conditions: tibial compression OA, intra-articular twice a week for 4 weeks
Source text: (§2) Tibia loading to induce osteoarthritis in young mice. Briefly, mice were anesthetized using 2.5% isoflurane inhalation under 4 L/min of oxygen. The right tibia was positioned vertically, with the ankle upward and the knee downward in deep flexion between loading cups. Using a material testing machine (Instron ElectroPulse E1000), axial compression was applied through the knee via the upper cup, while the lower cup was fixed and linked to the load cell. The ACL tear was confirmed by the release of compressive force during compression. Mice were allowed to progress for 6 weeks after loading (n=8 for each group). Contralateral left limb served as a non-loaded control. Mice blood serum was collected via retro-orbital bleeding to do multiplex autoantibody assay. Mice were sacrificed by cervical dislocation and knee joint were collected for assessment.
as §1
To test whether 15-PGDH inhibition would be protective in younger, adult mice upon induction of OA, OA was induced in young, adult mice (3 months old) by application of tibial compression on the mouse knee leading to anterior crucial ligament (ACL) rupture. This injury model recapitulates ACL injury frequently observed in human patients. After 1 week of injury, local intra-articular injections of vehicle or SW were given twice a week for 4 weeks. […]

[3] = tested on: inflammatory cytokine levels; assay: Luminex cytokine panel on serum of OA mice given intra-articular injections; assay type: in vivo; conditions: vs vehicle
Source text: as §2
Luminex Assay. This assay was performed at the Human Immune Monitoring Center at Stanford University. Human 76-plex or mouse 48-plex kits (eBioscience/Affymetrix) were used according to the manufacturer's recommendations. Briefly, antibody beads and samples were added to a 96-well plate and incubated at room temperature for 2 hours, followed by overnight incubation at 4° C. with shaking at 500 to 600 rpm. Plates were then washed in a w ash buffer, and biotinylated detection antibody was added for 2 hours at room temperature with shaking. Plate was washed, and streptavidin-phycoerythrin was added After 40 min incubation and washes, reading buffer was added to the wells Plates were read using a Luminex 200 instrument with a lower bound of 50 beads per sample per cytokine. Custom assay control beads were added to all wells. The raw MFI read-outs of all samples were used and analyzed by GraphPad prism.
To test whether 15-PGDH inhibition would be protective in younger, adult mice upon induction of OA, OA was induced in young, adult mice (3 months old) by application of tibial compression on the mouse knee leading to anterior crucial ligament (ACL) rupture. This injury model recapitulates ACL injury frequently observed in human patients. After 1 week of injury, local intra-articular injections of vehicle or SW were given twice a week for 4 weeks. […] Upon blinded scoring of mice knee joints based on the OARSI scoring system, it was observed that the maximal damage score. […] To assess the inflammation in these mice, serum was utilized from vehicle or SW injected mice to test for a 39-plex Luminex cytokine panel. […] These observations corroborated that local 15-PGDH inhibition by SW treatment not only enhances cartilage regeneration but also decreases the inflammation in osteoarthritic mice.

[4] = tested on: human OA cartilage explants; assay: Human OA cartilage explants: Safranin O staining; assay type: cell-based; conditions: SW 10 uM, 1 week, all zones, especially middle and deep zone
Source text: Human cartilage tissue collection and treatment. Human cartilage samples were harvested from the surgical knee tissue discards of patients (n>5, age ranging from 55-75 years) undergoing total knee arthroplasty according to approved human subjects institutional review board protocols at Stanford University. Informed, written consent was given by the patients prior to the study. Cylindrical explants (4 mm diameter, 2-4 mm thickness) were extracted from the cartilage samples using standard biopsy punches (Integra, NJ. USA). Cartilage explants were cultured in DMEM-F12 medium supplemented with 10% fetal bovine serum (FBS), 25 μg mL^−1 ascorbic acid, 1× glutamine, and 1× antibiotic-antimycotic solution prior to experiments. To assess the effect of 15-PGDH inhibition, explants were treated with Vehicle (DMSO) or SW (10 uM) for 1 week prior to the assessment. Fresh media was added to the explants every other day.
After 1 week of treatment with SW, explants were fixed in 4% paraformaldehyde, washed with PBS, and cryopreserved in 30% sucrose solution overnight. […] Explants from at least five different patient donors and multiple (>5) sections were used for quantitative analysis.
Next, the effects of 15-PGDH inhibition in human OA cartilage were tested. […] Sulphated glycosaminoglycans (sGAG) were also independently quantified through measurements with the DMMB dye. […]

[5] = tested on: PGE2 levels; conditions: in vivo, bone marrow, colon, lung and liver, cited from earlier work
[6] = target: 15-PGDH (Mus musculus, UniProt Q8VCC1); conditions: aged muscles, one month of daily intraperitoneal treatment, cited from earlier work
15-PGDH, sequence (Q8VCC1 whole entry): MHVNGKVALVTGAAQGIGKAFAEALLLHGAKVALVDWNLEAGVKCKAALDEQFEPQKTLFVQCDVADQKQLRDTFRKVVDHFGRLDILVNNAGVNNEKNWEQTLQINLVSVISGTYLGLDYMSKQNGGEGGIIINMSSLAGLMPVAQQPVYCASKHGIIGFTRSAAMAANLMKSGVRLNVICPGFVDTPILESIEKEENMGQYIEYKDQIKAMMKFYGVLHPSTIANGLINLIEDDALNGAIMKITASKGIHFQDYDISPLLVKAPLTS

Structure (SMILES): CCCC[S+]([O-])c1sc2nc(-c3cccs3)cc(-c3ccccc3)c2c1N (stereo not drawn) [SW033291, 2-(butylsulfinyl)-4-phenyl-6-(thiophen-2-yl)thieno[2,3-b]pyridin-3-amine]
- cartilage structure (safranin O staining of knee joints) [1]: improved cartilage structure with increased thickness, GAG staining and smoother cartilage surface
- OARSI Maximum score ([1]; vs control): significantly decreased
- OARSI Summit score ([1]; vs control): significantly decreased
- GAG staining and cartilage degradation (Safranin O) ([2]; 3-month-old mice, 6 weeks): higher GAG staining and reduced cartilage degradation
- OARSI Maximum score ([2]; vs vehicle): significantly decreased
- OARSI Summit score ([2]; vs vehicle): significantly decreased
- CCL4 level [3]: significant downregulation
- CCL7 level [3]: significant downregulation
- CXCL10 level [3]: significant downregulation
- IL2 level [3]: significant downregulation
- IL27 level [3]: significant downregulation
- VEGF level [3]: significant downregulation
- inflammatory cytokine levels [3]: overall reduction
- GAG staining (Safranin O) [4]: increase in GAG staining
- increase of PGE2 levels [5]: 2 fold
- increase of PGD2 levels ([5]; compared with PGE2 increase): to a lesser extent
- levels of PGE2 and PGD2 ([6]; LC-MS/MS): concomitant increase
- 15-PGDH specific activity [6]: significantly reduced
